Laboratory results reported in ChEMBL document CHEMBL2311250 (Bioorg Med Chem Lett, 2013).
Converted amounts (≈) assume the structure as drawn.

How the values were obtained:
[1] = Aqueous solubility of the compound at ph 6.5; assay type: physicochemical
[2] = Permeability of the compound by PAMPA; assay type: ADME; conditions: read-out: permeability
hERG (KCNH2) = hERG (KCNH2) (Homo sapiens, UniProt Q12809); assay: Displacement of [3H]dofetilide from human ERG at 10 uM; conditions: probe [3H]dofetilide
Sequence of hERG (KCNH2) (Q12809 whole entry): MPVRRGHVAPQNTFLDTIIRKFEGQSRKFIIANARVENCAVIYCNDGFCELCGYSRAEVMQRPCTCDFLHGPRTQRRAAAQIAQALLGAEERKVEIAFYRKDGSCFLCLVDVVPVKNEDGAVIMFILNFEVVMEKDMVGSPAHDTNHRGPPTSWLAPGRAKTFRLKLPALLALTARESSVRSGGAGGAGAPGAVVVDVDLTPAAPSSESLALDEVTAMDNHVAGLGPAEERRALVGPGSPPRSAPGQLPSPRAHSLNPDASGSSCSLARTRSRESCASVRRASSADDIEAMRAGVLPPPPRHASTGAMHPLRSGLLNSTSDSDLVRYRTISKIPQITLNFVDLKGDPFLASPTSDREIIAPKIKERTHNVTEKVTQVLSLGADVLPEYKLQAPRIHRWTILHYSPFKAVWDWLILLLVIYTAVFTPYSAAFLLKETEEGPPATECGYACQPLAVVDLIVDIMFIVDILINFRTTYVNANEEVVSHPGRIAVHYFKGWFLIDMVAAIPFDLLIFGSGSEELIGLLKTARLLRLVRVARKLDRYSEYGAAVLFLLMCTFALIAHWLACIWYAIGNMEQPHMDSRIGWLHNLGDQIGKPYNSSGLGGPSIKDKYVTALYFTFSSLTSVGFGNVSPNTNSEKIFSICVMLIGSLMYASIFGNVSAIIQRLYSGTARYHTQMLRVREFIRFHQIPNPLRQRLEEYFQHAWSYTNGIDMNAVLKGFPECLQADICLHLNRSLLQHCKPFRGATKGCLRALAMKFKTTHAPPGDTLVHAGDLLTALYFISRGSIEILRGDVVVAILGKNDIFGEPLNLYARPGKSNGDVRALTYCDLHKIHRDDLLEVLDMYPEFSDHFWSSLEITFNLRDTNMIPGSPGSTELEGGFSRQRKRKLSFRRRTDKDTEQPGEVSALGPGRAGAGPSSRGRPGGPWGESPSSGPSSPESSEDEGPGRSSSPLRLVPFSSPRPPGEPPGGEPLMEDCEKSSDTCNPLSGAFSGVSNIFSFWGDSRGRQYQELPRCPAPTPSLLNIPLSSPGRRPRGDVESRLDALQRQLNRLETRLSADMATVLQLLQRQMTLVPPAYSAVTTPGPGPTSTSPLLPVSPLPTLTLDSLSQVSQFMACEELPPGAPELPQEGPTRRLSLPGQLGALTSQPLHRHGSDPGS

[3] = Half life in human liver microsomes; assay type: ADME, Microsome
[4] = molecular target: T1, Tyrosine-protein kinase receptor TYRO3 (Homo sapiens, UniProt Q06418); assay: Inhibition of Sky (unknown origin) by ELISA kinase assay in presence of 60 uM ATP
T1 sequence (Q06418 whole entry): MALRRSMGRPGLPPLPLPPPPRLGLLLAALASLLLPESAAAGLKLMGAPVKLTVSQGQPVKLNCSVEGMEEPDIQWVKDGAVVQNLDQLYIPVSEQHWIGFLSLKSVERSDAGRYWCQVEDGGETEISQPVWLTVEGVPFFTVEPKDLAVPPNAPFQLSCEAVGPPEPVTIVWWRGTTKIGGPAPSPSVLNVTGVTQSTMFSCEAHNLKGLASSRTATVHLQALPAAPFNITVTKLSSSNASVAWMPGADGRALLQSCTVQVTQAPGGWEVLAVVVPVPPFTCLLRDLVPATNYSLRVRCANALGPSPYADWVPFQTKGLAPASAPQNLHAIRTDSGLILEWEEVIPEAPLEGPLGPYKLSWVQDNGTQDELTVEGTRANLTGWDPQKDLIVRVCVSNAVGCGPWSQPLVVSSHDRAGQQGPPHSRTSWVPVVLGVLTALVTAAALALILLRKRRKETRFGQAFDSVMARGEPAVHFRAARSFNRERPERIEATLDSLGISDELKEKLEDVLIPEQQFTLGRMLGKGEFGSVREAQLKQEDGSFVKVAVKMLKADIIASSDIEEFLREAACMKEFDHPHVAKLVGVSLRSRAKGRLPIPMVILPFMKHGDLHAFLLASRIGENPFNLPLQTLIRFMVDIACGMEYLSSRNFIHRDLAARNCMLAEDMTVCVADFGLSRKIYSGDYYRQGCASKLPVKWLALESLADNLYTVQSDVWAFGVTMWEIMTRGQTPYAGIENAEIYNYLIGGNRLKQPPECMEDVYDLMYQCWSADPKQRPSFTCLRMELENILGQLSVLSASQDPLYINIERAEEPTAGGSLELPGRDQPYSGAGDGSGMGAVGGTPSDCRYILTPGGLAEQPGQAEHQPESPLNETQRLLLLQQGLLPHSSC

[5] = Half life in rat liver microsomes; assay type: ADME, Microsome
Platelet = assay: Inhibition of platelet aggregation (unknown origin); assay type: functional, cell-based
[6] = molecular target: Tyrosine-protein kinase Lck (Homo sapiens, UniProt P06239); assay: Inhibition of LCK (unknown origin) in presence of ATP
Sequence of Tyrosine-protein kinase Lck (P06239 whole entry): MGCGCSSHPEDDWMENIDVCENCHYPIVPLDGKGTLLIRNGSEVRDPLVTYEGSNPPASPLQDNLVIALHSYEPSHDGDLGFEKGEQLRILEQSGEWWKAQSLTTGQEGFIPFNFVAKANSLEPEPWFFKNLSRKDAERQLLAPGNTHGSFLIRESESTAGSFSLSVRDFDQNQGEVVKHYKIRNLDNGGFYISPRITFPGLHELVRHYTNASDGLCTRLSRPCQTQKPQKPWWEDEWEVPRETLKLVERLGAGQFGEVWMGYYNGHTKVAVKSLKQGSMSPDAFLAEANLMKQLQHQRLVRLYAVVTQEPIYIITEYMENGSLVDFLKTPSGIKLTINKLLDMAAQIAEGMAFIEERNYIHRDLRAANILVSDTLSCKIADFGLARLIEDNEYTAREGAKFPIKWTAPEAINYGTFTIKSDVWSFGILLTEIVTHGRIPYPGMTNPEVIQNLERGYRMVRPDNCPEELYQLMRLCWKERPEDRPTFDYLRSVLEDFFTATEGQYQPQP

[7] = molecular target: Tyrosine-protein kinase ABL1 (Homo sapiens, UniProt P00519); assay: Inhibition of ABL (unknown origin) in presence of ATP
[8] = Oral bioavailability in Sprague-Dawley rat at 5 mg/kg; assay type: ADME, organism-based; conditions: in vivo
[9] = Cmax in Sprague-Dawley rat at 1 mg/kg, iv and 5 mg/kg, po; assay type: ADME, organism-based; conditions: in vivo
[10] = AUC in Sprague-Dawley rat at 1 mg/kg, iv and 5 mg/kg, po; assay type: ADME, organism-based; conditions: plasma
[11] = Clearance in Sprague-Dawley rat at 1 mg/kg, iv and 5 mg/kg, po; assay type: ADME, organism-based; conditions: in vivo
[12] = Volume of distribution at steady state in Sprague-Dawley rat at 1 mg/kg, iv and 5 mg/kg, po; assay type: ADME, organism-based; conditions: in vivo, read-out: Vdss
[13] = Half life in Sprague-Dawley rat at 1 mg/kg, iv and 5 mg/kg, po; assay type: ADME, organism-based; conditions: in vivo
[14] = molecular target: Dual specificity protein kinase CLK1 (Homo sapiens, UniProt P49759); assay: Inhibition of CLK1 (unknown origin) in presence of ATP
Sequence of Dual specificity protein kinase CLK1 (P49759 whole entry): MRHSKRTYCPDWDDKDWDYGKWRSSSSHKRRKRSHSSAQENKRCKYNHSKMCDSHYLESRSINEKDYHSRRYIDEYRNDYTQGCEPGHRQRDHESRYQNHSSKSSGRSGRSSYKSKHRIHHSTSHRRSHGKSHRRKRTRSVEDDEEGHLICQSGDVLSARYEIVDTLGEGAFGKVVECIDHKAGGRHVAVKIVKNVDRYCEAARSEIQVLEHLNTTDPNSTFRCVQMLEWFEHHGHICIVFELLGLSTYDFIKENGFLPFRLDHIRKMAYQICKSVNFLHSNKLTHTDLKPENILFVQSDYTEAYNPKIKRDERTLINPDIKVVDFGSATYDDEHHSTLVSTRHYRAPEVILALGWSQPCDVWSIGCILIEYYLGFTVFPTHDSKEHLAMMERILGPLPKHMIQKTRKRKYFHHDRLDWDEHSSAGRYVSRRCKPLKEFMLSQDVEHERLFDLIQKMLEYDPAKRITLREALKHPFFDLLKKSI

[15] = molecular target: Calcium/calmodulin-dependent protein kinase type 1 (Homo sapiens, UniProt Q14012); assay: Inhibition of CAMK1 (unknown origin) in presence of ATP
[16] = molecular target: Myosin light chain kinase 2, skeletal/cardiac muscle (Homo sapiens, UniProt Q9H1R3); assay: Inhibition of MYLK2 (unknown origin) in presence of ATP
[17] = molecular target: Mitogen-activated protein kinase kinase kinase kinase 4 (Homo sapiens, UniProt O95819); assay: Inhibition of MAP4K4 (unknown origin) in presence of ATP
Sequence of Mitogen-activated protein kinase kinase kinase kinase 4 (O95819 whole entry): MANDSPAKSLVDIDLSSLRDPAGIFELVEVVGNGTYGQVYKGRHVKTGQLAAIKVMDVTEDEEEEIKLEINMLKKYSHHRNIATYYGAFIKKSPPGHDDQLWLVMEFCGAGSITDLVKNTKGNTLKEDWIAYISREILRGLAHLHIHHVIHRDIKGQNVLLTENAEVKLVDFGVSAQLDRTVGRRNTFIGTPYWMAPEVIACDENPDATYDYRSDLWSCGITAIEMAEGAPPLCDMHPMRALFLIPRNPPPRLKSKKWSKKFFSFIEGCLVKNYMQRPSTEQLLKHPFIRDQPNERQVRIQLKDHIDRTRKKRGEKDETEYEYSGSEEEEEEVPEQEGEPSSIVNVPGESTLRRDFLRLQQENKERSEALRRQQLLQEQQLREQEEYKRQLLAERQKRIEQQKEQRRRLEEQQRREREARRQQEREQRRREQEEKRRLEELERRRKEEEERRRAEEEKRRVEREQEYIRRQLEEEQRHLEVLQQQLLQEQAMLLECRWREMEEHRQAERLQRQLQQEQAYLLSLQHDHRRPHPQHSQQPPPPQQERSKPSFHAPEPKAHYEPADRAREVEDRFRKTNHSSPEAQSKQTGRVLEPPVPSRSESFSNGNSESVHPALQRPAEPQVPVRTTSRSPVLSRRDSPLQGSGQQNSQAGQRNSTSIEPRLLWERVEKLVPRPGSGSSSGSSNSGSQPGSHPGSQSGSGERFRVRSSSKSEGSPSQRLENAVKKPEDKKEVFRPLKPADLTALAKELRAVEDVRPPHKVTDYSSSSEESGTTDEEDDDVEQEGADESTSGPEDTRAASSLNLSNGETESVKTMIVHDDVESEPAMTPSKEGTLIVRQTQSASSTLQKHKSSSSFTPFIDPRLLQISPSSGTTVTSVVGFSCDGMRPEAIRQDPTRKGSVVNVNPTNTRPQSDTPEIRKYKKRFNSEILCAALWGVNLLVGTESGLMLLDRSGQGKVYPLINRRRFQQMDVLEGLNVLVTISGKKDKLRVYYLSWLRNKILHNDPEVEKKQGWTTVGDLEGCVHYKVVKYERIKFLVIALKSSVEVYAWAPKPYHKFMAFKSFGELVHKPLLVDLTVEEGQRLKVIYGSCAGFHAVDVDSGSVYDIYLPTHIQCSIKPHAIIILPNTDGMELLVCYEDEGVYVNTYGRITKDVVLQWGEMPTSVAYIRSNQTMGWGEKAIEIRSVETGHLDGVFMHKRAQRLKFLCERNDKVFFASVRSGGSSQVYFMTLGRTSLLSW

[18] = molecular target: Mitogen-activated protein kinase kinase kinase 9 (Homo sapiens, UniProt P80192); assay: Inhibition of MAP3K9 (unknown origin) in presence of ATP
Sequence of Mitogen-activated protein kinase kinase kinase 9 (P80192 whole entry, canonical isoform): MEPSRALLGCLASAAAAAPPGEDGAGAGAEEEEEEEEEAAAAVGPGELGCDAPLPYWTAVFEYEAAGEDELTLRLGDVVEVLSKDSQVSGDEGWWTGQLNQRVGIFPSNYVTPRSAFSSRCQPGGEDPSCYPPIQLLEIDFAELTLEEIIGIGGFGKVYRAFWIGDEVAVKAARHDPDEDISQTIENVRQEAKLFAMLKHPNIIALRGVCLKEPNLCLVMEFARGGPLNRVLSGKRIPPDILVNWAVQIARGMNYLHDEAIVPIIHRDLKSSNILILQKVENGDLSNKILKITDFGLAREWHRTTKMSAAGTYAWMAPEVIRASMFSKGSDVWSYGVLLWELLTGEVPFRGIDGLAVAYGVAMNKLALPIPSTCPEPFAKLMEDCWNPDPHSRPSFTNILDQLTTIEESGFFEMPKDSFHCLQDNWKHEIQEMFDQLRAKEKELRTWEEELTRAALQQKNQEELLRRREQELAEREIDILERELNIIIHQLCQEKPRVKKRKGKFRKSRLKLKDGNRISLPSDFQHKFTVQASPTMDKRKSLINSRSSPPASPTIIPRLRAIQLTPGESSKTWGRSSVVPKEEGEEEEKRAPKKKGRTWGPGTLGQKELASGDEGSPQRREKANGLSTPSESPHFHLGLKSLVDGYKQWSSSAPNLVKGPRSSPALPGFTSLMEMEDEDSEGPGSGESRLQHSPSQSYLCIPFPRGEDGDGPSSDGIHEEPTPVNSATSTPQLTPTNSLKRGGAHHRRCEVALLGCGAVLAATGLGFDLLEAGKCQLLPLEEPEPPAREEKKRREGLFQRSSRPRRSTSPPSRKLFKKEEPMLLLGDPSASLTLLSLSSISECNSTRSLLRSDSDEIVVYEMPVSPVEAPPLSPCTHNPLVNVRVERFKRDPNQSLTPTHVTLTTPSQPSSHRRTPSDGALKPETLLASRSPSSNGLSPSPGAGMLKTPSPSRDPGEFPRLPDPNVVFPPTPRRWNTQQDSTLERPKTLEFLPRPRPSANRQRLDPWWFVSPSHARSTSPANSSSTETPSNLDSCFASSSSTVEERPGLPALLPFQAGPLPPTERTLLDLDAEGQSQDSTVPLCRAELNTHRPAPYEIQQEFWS

[19] = molecular target: Casein kinase I isoform delta (Homo sapiens, UniProt P48730); assay: Inhibition of CK1-delta (unknown origin) in presence of ATP
CYP2D6 = CYP2D6 (Homo sapiens, UniProt P10635); assay: Inhibition of CYP2D6 (unknown origin) at 3 uM; assay type: ADME
Sequence of CYP2D6 (P10635 whole entry): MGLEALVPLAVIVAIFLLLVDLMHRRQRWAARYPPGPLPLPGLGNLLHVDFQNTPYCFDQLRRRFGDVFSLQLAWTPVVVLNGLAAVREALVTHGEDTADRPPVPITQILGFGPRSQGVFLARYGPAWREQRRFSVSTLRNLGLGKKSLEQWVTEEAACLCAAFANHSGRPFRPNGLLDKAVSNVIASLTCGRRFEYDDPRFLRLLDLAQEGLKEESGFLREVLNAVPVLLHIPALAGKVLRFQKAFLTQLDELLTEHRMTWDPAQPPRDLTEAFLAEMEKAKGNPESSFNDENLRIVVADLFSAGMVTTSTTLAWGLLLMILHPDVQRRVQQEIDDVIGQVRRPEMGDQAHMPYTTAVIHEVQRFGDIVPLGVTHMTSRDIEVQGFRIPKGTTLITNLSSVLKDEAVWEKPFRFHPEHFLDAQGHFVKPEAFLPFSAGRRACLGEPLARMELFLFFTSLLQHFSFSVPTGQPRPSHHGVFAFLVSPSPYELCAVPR

SMILES | solubility [1] | Papp [2] | half-life [3] | IC50 [4] | half-life [5] | IC50 (Platelet) | inhibition at 10 µM (hERG (KCNH2)) | also measured
COc1ccccc1CNc1ncc(C(=O)NCCCN2CCCC2=O)c(NC2CCCC2)n1 | 81.6 µM (≈ 38.1 µg/mL) | 1.5 ×10⁻⁶ cm/s | – | – | 16 min | 46 µM | 7% | –
O=C(NCCCN1CCCC1=O)c1cnc(NCc2cc(Cl)ccc2Cl)nc1NC1CCCC1 | 3.9 µM (≈ 1.97 µg/mL) | 0.1 ×10⁻⁶ cm/s | – | – | 4 min | 28 µM | 23% | –
O=C(NCCCN1CCOC1=O)c1cnc(NCc2cc(Cl)ccc2Cl)nc1NC1CCCC1 | 1.3 µM (≈ 0.66 µg/mL) | – | – | – | < 5 min | 29 µM | 33% | –
COc1ccccc1CNc1ncc(C(=O)NCCNC(C)=O)c(NC2CCCC2)n1 | 7.8 µM (≈ 3.33 µg/mL) | 1.9 ×10⁻⁶ cm/s | 5 min | 0.38 µM | – | – | 35% | –
COc1ccccc1CNc1ncc(C(=O)NCCc2nnn[nH]2)c(NC2CCCC2)n1 | 12 µM (≈ 5.25 µg/mL) | 21 ×10⁻⁶ cm/s | 60 min | 1.3 µM | 22 min | – | 79% | –
COc1ccccc1CNc1ncc(C(=O)NCCCCN(C)C)c(NC2CCCC2)n1 | 200 µM (≈ 88.1 µg/mL) | – | 40 min | 0.5 µM | – | 24 µM | 28% | –
COc1ccccc1CNc1ncc(C(=O)NC2CCN(C)CC2)c(NC2CCCC2)n1 | 80 µM (≈ 35.1 µg/mL) | 1.2 ×10⁻⁶ cm/s | 34 min | 0.52 µM | 56 min | 8.8 µM | 27% | IC50 [6]: 15 µM; IC50 [7]: 21.1 µM; bioavailability [8]: 41%; Cmax [9]: 74 ng/mL; AUC [10]: 302 ng·h/mL; clearance [11]: 73 mL/min/kg; Vd [12]: 18 L/kg; half-life [13]: 210 min
CN1CCC(NC(=O)c2cnc(NCc3cc(Cl)ccc3Cl)nc2NC2CCNCC2)CC1 | 200 µM (≈ 98.5 µg/mL) | < 0.1 ×10⁻⁶ cm/s | 38 min | 0.19 µM | 60 min | 8.5 µM | > 50% | bioavailability [8]: 0%; Cmax [9]: 25 ng/mL; clearance [11]: 40 mL/min/kg; Vd [12]: 0.4 L/kg; half-life [13]: 12 min

More lines, main results first:

solubility [1] | Papp [2] | half-life [3] | IC50 [4] | half-life [5] | IC50 (Platelet) | SMILES | inhibition at 10 µM (hERG (KCNH2)) | also measured
3.5 µM (≈ 1.64 µg/mL) | 2 ×10⁻⁶ cm/s | 37 min | 0.003 µM | – | – | CC[C@@H](CO)Nc1nc(Nc2cc(Cl)cc(Cl)c2)ncc1C(=O)NC1CCN(C)CC1 | 3.4% | –
89 µM (≈ 47.6 µg/mL) | 2 ×10⁻⁶ cm/s | 23 min | 0.041 µM | 57 min | – | CN1CCC(NC(=O)c2cnc(NCc3cc(Cl)ccc3Cl)nc2NC2CCC(N(C)C)CC2)CC1 (stereo unspecified) | 1.6% | –
200 µM (≈ 104 µg/mL) | 0.3 ×10⁻⁶ cm/s | 120 min | 0.002 µM | 60 min | 1.4 µM | CN1CCC(NC(=O)c2cnc(Nc3cc(Cl)cc(Cl)c3)nc2NC2CCC(N(C)C)CC2)CC1 (stereo unspecified) | 6.7% | IC50 [14]: 3.45 µM; IC50 [15]: 19.7 µM; IC50 [7]: 7.61 µM; IC50 [16]: 8.27 µM; IC50 [17]: 0.12 µM; IC50 [18]: 12.2 µM
40 µM (≈ 19.2 µg/mL) | < 0.1 ×10⁻⁶ cm/s | 35 min | 0.009 µM | – | – | CN1CCC(NC(=O)c2cnc(Nc3cc(Cl)cc(Cl)c3)nc2NC2CCOCC2)CC1 | – | –
2.3 µM (≈ 1.16 µg/mL) | 0.2 ×10⁻⁶ cm/s | 41 min | 0.006 µM | – | – | CN1CCC(NC(=O)c2cnc(Nc3cc(Cl)cc(Cl)c3)nc2N[C@H]2CCCCNC2=O)CC1 | 4% | –
40 µM (≈ 19.3 µg/mL) | 1.4 ×10⁻⁶ cm/s | 74 min | 0.01 µM | 60 min | 9.6 µM | CN1CCC(NC(=O)c2cnc(Nc3cc(Cl)cc(Cl)c3)nc2N[C@@H]2COC[C@H]2O)CC1 | 0.98% | IC50 [6]: 3.68 µM; IC50 [14]: 11.2 µM; IC50 [19]: 4.5 µM; bioavailability [8]: 0%; clearance [11]: 55 mL/min/kg; Vd [12]: 2.7 L/kg; half-life [13]: 780 min; IC50 [16]: 24.9 µM; IC50 [17]: 2.48 µM; IC50 [18]: 13.4 µM
5.2 µM (≈ 2.18 µg/mL) | 0.2 ×10⁻⁶ cm/s | 21 min | 0.092 µM | 3 min | – | Cc1cc(-c2cnc(Nc3cc(Cl)cc(Cl)c3)nc2NC2CCNCC2)on1 | 1.3% | inhibition at 3 µM (CYP2D6): 81%
200 µM (≈ 83.7 µg/mL) | 1 ×10⁻⁶ cm/s | 120 min | 0.044 µM | 31 min | – | O[C@@H]1COC[C@H]1Nc1nc(Nc2cc(Cl)cc(Cl)c2)ncc1-c1cccnc1 | 1.5% | inhibition at 3 µM (CYP2D6): 88%
200 µM (≈ 87.1 µg/mL) | < 0.01 ×10⁻⁶ cm/s | 48 min | 0.15 µM | 60 min | – | O[C@@H]1COC[C@H]1Nc1nc(Nc2cc(Cl)cc(Cl)c2)ncc1-c1ccc(F)cc1 | 2.7% | inhibition at 3 µM (CYP2D6): 24%
5.2 µM (≈ 2.18 µg/mL) | 0.3 ×10⁻⁶ cm/s | 30 min | 0.015 µM | 31 min | – | O[C@@H]1COC[C@H]1Nc1nc(Nc2cc(Cl)cc(Cl)c2)ncc1Br | > 100% | inhibition at 3 µM (CYP2D6): 1%
7.8 µM (≈ 3.12 µg/mL) | 0.9 ×10⁻⁶ cm/s | 11 min | 0.16 µM | – | 46 µM | COc1ccccc1CNc1ncc(C(=O)NCCCO)c(NC2CCCC2)n1 | 35% | –
